Results from patent US7312248B2, “Control of parasites in animals by the use of novel trifluoromethanesulfonanilide oxime ether derivatives” (Schering-Plough Animal Health Corporation, priority 2004, dated 2007).
Read-outs that look alike come from different tables or passages of the source.

Tests used:
Type in all cases: in vivo
[1] = tested on: cat flea (Ctenocephalides felis); assay: whole plant or invertebrate; details: Ctenocephalides felis
Summary of the method: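 Adult C. felis (3-7 days post-emergence; 15 per flask, at least 4 replicates) exposed to a glass flask base dried 24 h after coating with compound in acetone at 1.26 μg/cm^2. Held at 25±1 °C, 75±5% humidity; mortality (immobile or unable to right) scored at 8, 24 and/or 48 h as percentage.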

[2] = tested on: cat flea (Ctenocephalides felis); assay: Ctenocephalides felis adulticide assay: dose response (LC50)
Source text: c) Ctenocephalides felis Adulticide Assay: C. felis Dose Response
The purpose of this example was to determine the LC50 when cat fleas were contacted with a glass surface treated with sample compounds or formulations prepared as described above. Mortality of fleas was defined as follows: fleas were considered dead if they didn't move or were on their sides and unable to walk or right themselves. LC50: Lethal Concentration 50—concentration of glass surface treatment at which 50% of the cat fleas were killed. The test species was the cat flea (Ctenocephalides felis). The strain used was obtained from external suppliers as pupae and held in the laboratory under testing conditions until the adults had emerged. Fifteen (15) fleas were used in a minimum of four replicates for each dose level (total of 60 fleas per dose level). The insects were selected to be in the adult life stage, aged between 3 and 7 days post emergence.
The compounds to be tested were dissolved in acetone just prior to testing. Samples of compounds were stored in a refrigerator (5±1° C.) unless otherwise specified. During the mortality testing, the temperature was maintained at 25+1° C. Humidity was maintained at 75±5%. The base (area=159 mm^2) of a 100 mL glass Erlenmeyer (conical) flask provided the treatment surface. Flasks were pretreated with Coatasil™ glass treatment to maximise bio-availability of test compounds by preventing them from binding to the glass surface.
Six dose levels (concentrations) of test sample, in the form of a serial dilution, were derived from a pilot study and covered a range that produced very low to very high mortality. The base of the 100 mL Erlenmeyer flask was treated with 0.5 mL of test sample in acetone and gently swirled. This volume was sufficient to cover the base of the flask. Flasks were left to dry for 24 hours before flea exposure. Adult cat fleas were lightly anaesthetised by cooling and then placed into a sorting chamber, which allowed fleas to revive and jump into the Erlenmeyer flasks. Fifteen (15)adult cat fleas were collected in each flask. The top of the flasks were then covered in Parafilm™ and small holes made to allow gas exchange. A 0.5 mL volume of acetone was applied to the base of an Erlenmeyer flask and the testing proceeded in the same manner described above. Cat fleas in the treatment containers were held under testing conditions for 24 hours. Mortality resulting from the treatments was recorded at 8 and 24 hours.

[3] = tested on: Brown Dog Tick (Rhipicephalus sanguineus); assay: Rapid screening protocol for topical application on brown dog ticks; details: 48 h; Laboratory 2 F data
[4] = tested on: Brown Dog Tick (Rhipicephalus sanguineus); assay: Dose response protocol for topical application on brown dog ticks (LD50); details: 24 h mortality
Protocol: e) Dose response protocol for topical application on brown dog ticks (Rhipicephalus sanguineus): The test determines the level of insecticidal activity of sample compounds or formulations when applied topically on brown dog ticks. Sample compounds were stored prior to use in a freezer (−5±1° C.), unless otherwise specified.
• Mortality: A tick is defined as dead after it gives no apparent response when touched lightly or gently breathed upon, while observed for 30 seconds. • LD50 (Lethal Dose 50): The dose of a topically applied treatment at which 50% of the dog ticks are killed. • Reference compound: To assess an experimental compound for significant acaricidal activity a single dose level is chosen, which is based upon known results from previous experiments using a commercially available active i.e., a reference compound. The reference compound selected is one in common use, and one that has a similar mode of action against the Brown Dog Tick (i.e., the test species). • Recovery container: A recovery container consists of a 500 ml round plastic container measuring 115 mm diameter and 70 mm height, with a tight fitting lid that has 10 small (˜1 mm) holes inserted for air exchange. A 90 mm diameter piece of filter paper was placed on the bottom of the container and moistened with 1 mL of de-stilled water.
Adult, mixed sex, Brown Dog Ticks (Rhipicephalus sanguineus) were reared as follows: (i) cultured, (ii) transferred unfed, to a testing laboratory, and (iii) then maintained under controlled conditions (i.e., temp. 18°±2° C., humidity 75±5% RH). The ticks used were selected for vigor prior to testing, i.e., capable of actively walking and responsive to being touched or gently breathed upon.
During the testing, the temperature was maintained at 25±1° C., and the humidity was ambient. Seven dose levels (concentrations) of sample compound, in the form of serial dilutions in acetone, were derived from a pilot study and covered a range that produced very low to very high mortality. Groups of ten ticks were treated topically (on the abdomen) with 1 μL of a single dose level of the sample compound. Each test was replicated four times, i.e., employing a total of 40 ticks per dose level of each sample compound. As a control, ten ticks were treated with solvent only (acetone) for each test. Following the treatment, the ticks were held in recovery containers maintained under appropriate rearing conditions for 24 hours. Mortality resulting from the treatments was recorded at 24 hours. […] Press, London (1971).]

Haemonchus contortus = Haemonchus contortus larvacidal (larval development) assay; details: 144 h, read-out: Haemonchus contortus LD99
Summary of the method: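 Nematode eggs placed on agar containing compound (12 two-fold dilutions, final 0.024–50 μg/ml) and left 6 days to develop to L3. LD99 is the lowest concentration inhibiting development of 99% of larvae, derived from well titre (2^n−1) and top concentration.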

[5] = 24 h, read-out: C. felis Mortality (%) 24 h, 24 h, Laboratory 1 A data
[6] = 8 h, read-out: C. felis Mortality (%) 8 h, 8 h, Laboratory 2 B data
[7] = 24 h, read-out: C. felis Mortality (%) 24 h, 24 h, Laboratory 2 B data
[8] = 48 h, read-out: C. felis Mortality (%) 48 h, 48 h, Laboratory 2 B data

Row | SMILES | mortality at 1.26 µg/cm2, 1.26 µg/cm2 [1, 5] | C. felis LC50 ([2]; Laboratory 1 C data) | C. felis LC50 ([2]; Laboratory 2 D data) | R. sanguineus Mortality (%) 48 h [3] | R. sanguineus LD50 [4] | mortality at 1.26 µg/cm2, 1.26 µg/cm2 [1, 6] | mortality at 1.26 µg/cm2, 1.26 µg/cm2 [1, 7] | IC99 (Haemonchus contortus) | mortality at 1.26 µg/cm2, 1.26 µg/cm2 [1, 8]
1 | C=CCO/N=C(\CC)c1cc(Cl)ccc1NS(=O)(=O)C(F)(F)F [Compound 156, N-[2-(1-allyloxyiminopropyl)-4-chlorophenyl]trifluoromethanesulfonamide] | 100% | 0.4 μg/cm^2 | 0.02 μg/cm^2 | 95% | 0.6 μg/tick | – | – | – | –
2 | CC/C(=N\OCc1cccs1)c1cc(Cl)ccc1NS(=O)(=O)C(F)(F)F [Compound 207, N-{4-chloro-2-[1-(thiophen-2-ylmethoxyimino)propyl]phenyl}trifluoromethanesulfonamide] | – | – | 0.007^D μg/cm^2 | 100% | 2.5 μg/tick | 98% | 100% | – | –
3 | C#CCO/N=C(\CC)c1cc(Cl)ccc1NS(=O)(=O)C(F)(F)F [Compound 208] | – | – | 0.02^D μg/cm^2 | 100% | 0.8 μg/tick | 100% | 100% | – | –
4 | CC(C)/C(=N\Oc1ccc(Cl)cc1)c1cc(Cl)ccc1NS(=O)(=O)C(F)(F)F [Compound 215, N-{4-chloro-2-[1-(4-chlorophenoxyimino)-2-methylpropyl]phenyl}trifluoromethanesulfonamide] | – | – | 0.07^D μg/cm^2 | 87% | 1.7 μg/tick | 82% | 100% | – | –
5 | C/C(=N\Oc1ccc(F)cc1)c1cc(Cl)ccc1NS(=O)(=O)C(F)(F)F [Compound 129, N-{4-chloro-2-[1-(4-fluorophenoxyimino)ethyl]phenyl}trifluoromethanesulfonamide] | 100% | 0.05 μg/cm^2 | 0.02 μg/cm^2 | – | 1.3 μg/tick | – | – | 1.9 µg/mL | –
6 | COCCO/N=C(\C)c1cc(Cl)ccc1NS(=O)(=O)C(F)(F)F [Compound 185, N-{4-chloro-2-[1-(2-methoxyethoxyimino)ethyl]phenyl}trifluoromethanesulfonamide] | – | 0.2 μg/cm^2 | 0.01 μg/cm^2 | 100% | 0.7 μg/tick | 100% | 100% | – | –
7 | C/C(=N\OC(C)(C)C)c1cc(Cl)ccc1NS(=O)(=O)C(F)(F)F [Compound 223] | – | – | 0.04^D μg/cm^2 | 97% | 1.4 μg/tick | 92% | 100% | – | –
8 | CC/C(=N\OC1CCCC1)c1cc(Cl)ccc1NS(=O)(=O)C(F)(F)F [Compound 155] | 100% | 0.2 μg/cm^2 | 0.02 μg/cm^2 | 92% | 1.5 μg/tick | – | – | – | –
9 | CC/C(=N\OCC1CCCO1)c1cc(Cl)ccc1NS(=O)(=O)C(F)(F)F (stereo not drawn) [Compound 205] | – | – | 0.02^D μg/cm^2 | 100% | 3.1 μg/tick | 97% | 98% | – | –
10 | CC/C(=N\OC(C)(C)C)c1cc(Cl)ccc1NS(=O)(=O)C(F)(F)F [Compound 224] | – | – | 0.04^D μg/cm^2 | 95% | 1.5 μg/tick | 83% | 100% | – | –
11 | C/C(=N\OCc1ccc(Cl)s1)c1cc(Cl)ccc1NS(=O)(=O)C(F)(F)F [Compound 194, N-{4-chloro-2-[1-(5-chlorothiophen-2-ylmethoxyimino)ethyl]phenyl}trifluoromethanesulfonamide] | – | – | 0.02^D μg/cm^2 | 100% | 2.0 μg/tick | 100% | 100% | – | –
12 | CC/C(=N\OCCC(C)C)c1cc(Cl)ccc1NS(=O)(=O)C(F)(F)F [Compound 247] | – | – | 0.1^D μg/cm^2 | – | 4.6 μg/tick | – | 100% | – | 100%
13 | CCC(C)O/N=C(\C)c1cc(Cl)ccc1NS(=O)(=O)C(F)(F)F (stereo not drawn) [Compound 242] | – | – | 0.1^D μg/cm^2 | – | 3.1 μg/tick | – | 100% | – | 100%
14 | C/C(=N\OCC(F)(F)F)c1cc(Cl)ccc1NS(=O)(=O)C(F)(F)F [Compound 186] | – | 0.1 μg/cm^2 | 0.006 μg/cm^2 | 100% | 0.9 μg/tick | 100% | 100% | – | –
15 | CC/C(=N\OC(C)CC)c1cc(Cl)ccc1NS(=O)(=O)C(F)(F)F (stereo not drawn) [Compound 243] | – | – | 0.1^D μg/cm^2 | – | 3.8 μg/tick | – | 100% | – | 100%
16 | C/C(=N\OC(C)C1CC1)c1cc(Cl)ccc1NS(=O)(=O)C(F)(F)F (stereo not drawn) [Compound 253] | – | – | 1.2^D μg/cm^2 | – | 3.4 μg/tick | – | 100% | – | 100%
